Experimental data from patent US5880146A, “Inhibition of IL-12-induced IFN-γ synthesis by specific bis-phenol compounds as a method of immune modulation” (Fuji ImmunoPharmaceuticals Corporation, priority 1995, dated 1999).

Assay: Cell viability (MTS) after treatment with bis-compound
Assay type: cell-based
Settings: human, pha-activated pbmc, 5 μg/ml
Method: Human peripheral blood monocytes (PBMC) were obtained from commercial sources as a leukophoresis from a healthy volunteer and were purified by centrifugation on a Ficoll-Hypaque (Pharmacia) gradient (1700 rpm for 20 min). The "buffy" coat containing the PBMC was diluted with serum-free culture medium (SF-RPMI) to a volume of 50 ml and collected by centrifugation at 1500 rpm for 5 min. Cells were resuspended in cell culture medium containing 10% fetal bovine serum (RPMI-10) and phytohemaglutinin (PHA - 10 μg/ml) at a density of 5×10^6 cells/ml and were cultured for 3 days at 37° C. in a humidified CO2 incubator. The PHA-activated cells were collected by centrifugation, washed three times with an equal volume of SF-RPMI and resuspended in fresh RPMI-10 (1×10^6 cells /ml). Aliquots (100 μl) were dispensed into the wells of multiple 96-well plates to give a final cell number of 10^5 per well. Test compounds, dissolved in dimethyl sulfoxide (DMSO) at 1 mg/ml, were first diluted in culture medium to an intermediate concentration of 20 μg/ml and then were added (50 μwell) to a specific well of the plate for each compound. Stimulation medium (50 μl/well) containing 10% serum, IL-2 and IL-12 was added to final concentrations of 25 U/ml and 0.5 ng/ml, respectively. Control wells receive no IL-2 or IL-12 (negative control) or received both interleukins but no test compound (positive control). The plates were incubated for 48 hr at 37° C. in a CO2 incubator at which time aliquots (20 μl) were removed for analysis of IFN-γ concentration by ELISA. A quantitative ELISA was developed by coating 96-well plates with an mouse monoclonal antibody against human IFN-γ, 1 μg/ml in phosphate buffered saline (PBS) (Pestka Biological Laboratories), overnight at 4° C. Unbound antibody was washed off by washing three times with PBS. Non-specific antibody binding was blocked with a solution of 1% bovine serum albumin (BSA) and 1% goat serum in PBS (150 μl/well) which was incubated for 2 hr at 37° C. After washing the blocked plates four times with PBS, test samples and dilutions of the IFN-γ standard are added in a final volume of 100 μl/well. Following an overnight incubation at 4° C., the plates are washed four times with PBS, and a polyclonal rabbit antiserum against human IFN-γ (1/10000 dilution--Petska Biological Laboratories) is added. After an additional incubation for 1 hr at 37° C. and four washes with PBS, a polyclonal donkey anti-rabbit detecting antibody, conjugated to horseradish peroxidase (1/700 dilution--Petska Biological Laboratories) is added for 1 hr at 37° C. The plates are then washed four times with PBS and 100 μl of K-blue substrate E(ILISA Technologies, Neogen Corp.) is added until the color in the wells containing the standard curve is sufficiently developed, at which time 100 μl of "Red-stop" solution (ELISA Technologies) is added. The absorbance of the solution within each well of the plate is then read at 650 nm using an ELISA plate reader (Dynatech MR7000). The amount of IFN-γ is calculated by comparing the optical density of the test sample with a standard curve derived from the dilutions of the control IFN-y. […] MTS is a chemical chromophore that is metabolized in the mitochondria of viable cells to produce a color which increases in intensity in proportion to the numbers of viable cells. The absorbance of the cell culture can be compared to control cultures in order to determine the percent viability.

| SMILES | viability [%] |
| --- | --- |
| CCCCCCCC(c1cc(C)cc(C)c1O)c1cc(C)cc(C)c1O [Compound 51852] | 105 |
| Cc1cc(C)c(O)c(C(CC(C)CC(C)(C)C)c2cc(C)cc(C)c2O)c1 (centres unmarked) [Compound 51853, bis-1,1-[2-hydroxy-3,5-dimethylphenyl]-3,5,5-dimethyl hexan] | 104 |
